Assay results as given in ChEMBL document CHEMBL4428076 (J Med Chem, 2016).
Activity calls are given as the source filed them. The calls are words filed in the database; no cut-off is given here.

Legend:
Mus musculus [1] = experiment: Antinociceptive activity in MOR-1 7TM/E1 splice variant knock out sc dosed C57BL/6 mouse assessed as increase in reaction time by radiant heat tail flick assay; assay type: functional; details: C57BL/6, sc
Mus musculus [2] = experiment: Antinociceptive activity in 129Sv6 mouse assessed as increase in reaction time at 0.1 to 10 mg/kg, sc measured 15 mins post dose by radiant heat tail flick assay; assay type: functional, organism-based
Mus musculus [3] = experiment: Antinociceptive activity in CD-1 mouse assessed as increase in reaction time at 1.5 mg/kg, sc measured 15 mins post dose in presence of delta opioid receptor antagonist NTI by radiant heat tail flick assay; assay type: functional, organism-based
Mus musculus [4] = experiment: Antinociceptive activity in CD-1 mouse assessed as increase in reaction time at 1.5 mg/kg, sc administered on day 6 after DOR1-exon3 antisense oligodeoxynucleotide injection on day 1, 3 and 5 by radiant heat tail flick assay; assay type: functional, organism-based
Mus musculus [5] = experiment: Antinociceptive activity in CD-1 mouse assessed as increase in reaction time at 1.5 mg/kg, sc administered on day 6 after MOR1-exon1 antisense oligodeoxynucleotide injection on day 1, 3 and 5 by radiant heat tail flick assay; assay type: functional, organism-based
Mus musculus [6] = experiment: Antinociceptive activity in sc dosed CD-1 mouse assessed as increase in latency latency to respond with hind paw lick or shake/flutter measured 15 mins post dose by hot plate test; assay type: functional; details: CD-1, sc, 0.25 h
[7] = Toxicity in CD-1 mouse assessed as inhibition of gastrointestinal transit by measuring distance traveled by charcoal at 4 mg/kg, sc followed by charcoal meal administration measured after 30 mins; assay type: organism-based; details: in vivo, 0.5 h
[8] = Toxicity in CD-1 mouse assessed as inhibition of gastrointestinal transit by measuring distance traveled by charcoal at 1.5 mg/kg, sc followed by charcoal meal administration measured after 30 mins; assay type: organism-based; details: in vivo, 0.5 h
Mus musculus [9] = experiment: Antinociceptive activity in CD-1 mouse assessed as increase in reaction time at 1.5 mg/kg, sc administered on day 6 after KOR1-exon2 antisense oligodeoxynucleotide injection on day 1, 3 and 5 by radiant heat tail flick assay; assay type: functional, organism-based
Mus musculus [10] = experiment: Antinociceptive activity in sc dosed CD-1 mouse assessed as increase in reaction time measured 15 mins post dose by radiant heat tail flick assay; assay type: functional; details: CD-1, sc, 0.25 h
Mus musculus [11] = experiment: Potency index, ratio of morphine ED50 to compound ED50 in icv dosed CD-1 mouse; assay type: functional
Mus musculus [12] = experiment: Antinociceptive activity in sc dosed CD-1 mouse assessed as increase in reaction time administered four times per day for 5 days by radiant heat tail flick assay; assay type: functional; details: CD-1, sc, 120 h
[13] = biological target: T1, Alpha-2C adrenergic receptor (Homo sapiens) (UniProt P18825); experiment: Displacement of [3H]rauwolscine from recombinant human adrenergic alpha2C receptor expressed in MDCK cell membrane after 90 mins by microbeta scintillation counting method
T1 sequence (whole entry): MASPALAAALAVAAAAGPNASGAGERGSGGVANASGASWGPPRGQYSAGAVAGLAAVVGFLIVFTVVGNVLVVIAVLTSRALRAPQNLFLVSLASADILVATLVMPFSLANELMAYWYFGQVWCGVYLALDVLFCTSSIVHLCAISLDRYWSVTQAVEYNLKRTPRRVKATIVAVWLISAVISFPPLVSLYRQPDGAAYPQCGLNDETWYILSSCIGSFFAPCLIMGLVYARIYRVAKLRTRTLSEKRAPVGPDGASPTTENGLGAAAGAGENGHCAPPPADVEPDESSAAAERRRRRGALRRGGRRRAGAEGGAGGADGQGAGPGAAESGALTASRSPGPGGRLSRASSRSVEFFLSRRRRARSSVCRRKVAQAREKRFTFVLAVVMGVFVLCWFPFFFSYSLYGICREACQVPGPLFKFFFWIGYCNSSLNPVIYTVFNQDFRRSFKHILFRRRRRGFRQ

Mus musculus [14] = experiment: Antinociceptive activity in C57BL/6 mouse assessed as increase in reaction time at 0.1 to 10 mg/kg, sc measured 15 mins post dose by radiant heat tail flick assay; assay type: functional, organism-based
Mus musculus [15] = experiment: Antinociceptive activity in CD-1 mouse assessed as increase in reaction time at 1.5 mg/kg, sc measured 15 mins post dose in presence of adrenergic alpha2 receptor antagonist yohimbine by radiant heat tail flick assay; assay type: functional, organism-based
Mu-type opioid receptor = Mu-type opioid receptor (Homo sapiens, UniProt P35372); experiment: Activation of mu opioid receptor-1 (unknown origin) expressed in CHO cells assessed as beta-arrestin-2 recruitment at 10 uM after 90 mins by beta-galactosidase complementation assay; assay type: cell-based; details: 1.5 h
Mu-type opioid receptor, sequence (P35372 whole entry): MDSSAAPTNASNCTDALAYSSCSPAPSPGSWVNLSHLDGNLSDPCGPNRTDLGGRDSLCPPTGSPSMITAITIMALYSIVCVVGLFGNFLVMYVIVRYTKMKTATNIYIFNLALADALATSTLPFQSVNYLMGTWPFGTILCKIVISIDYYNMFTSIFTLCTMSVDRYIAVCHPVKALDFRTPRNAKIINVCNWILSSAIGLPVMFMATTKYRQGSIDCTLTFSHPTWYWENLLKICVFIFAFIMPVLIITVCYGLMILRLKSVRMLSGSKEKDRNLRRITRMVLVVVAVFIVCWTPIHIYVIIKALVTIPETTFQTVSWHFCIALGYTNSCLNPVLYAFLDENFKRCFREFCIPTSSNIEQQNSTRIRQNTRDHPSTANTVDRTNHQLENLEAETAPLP

Mus musculus [16] = experiment: Antinociceptive activity in CD-1 mouse assessed as time required for peak effect at 1.5 mg/kg, sc by radiant heat tail flick assay; assay type: functional
Mus musculus [17] = experiment: Ratio of ED50 for sc dosed CD-1 mouse administered twice daily at dosing intervals of 12 hrs for 5 days to ED50 for sc dosed CD-1 mouse measured 15 mins post dose; assay type: functional
[18] = Toxicity in CD-1 mouse assessed as physical dependence by measuring number of jumps at 1.5 mg/kg, sc bid for 29 days followed by opioid antagonist naloxone injection on day 29 measured for 15 mins post last dose; assay type: organism-based; details: in vivo, 0.25 h
Mus musculus [19] = experiment: Antinociceptive activity in sc dosed CD-1 mouse assessed as increase in reaction time administered twice daily at dosing intervals of 12 hrs for 29 days by radiant heat tail flick assay; assay type: functional; details: CD-1, sc
[20] = biological target: Delta-type opioid receptor (Mus musculus, UniProt P32300); experiment: Antagonist activity at mouse delta opioid receptor-1 expressed in CHO cell membranes assessed as inhibition of DPDPE-induced [35S]GTPgammaS binding incubated for 60 mins by scintillation spectroscopic analysis; assay type: functional
Delta-type opioid receptor, sequence (P32300 whole entry): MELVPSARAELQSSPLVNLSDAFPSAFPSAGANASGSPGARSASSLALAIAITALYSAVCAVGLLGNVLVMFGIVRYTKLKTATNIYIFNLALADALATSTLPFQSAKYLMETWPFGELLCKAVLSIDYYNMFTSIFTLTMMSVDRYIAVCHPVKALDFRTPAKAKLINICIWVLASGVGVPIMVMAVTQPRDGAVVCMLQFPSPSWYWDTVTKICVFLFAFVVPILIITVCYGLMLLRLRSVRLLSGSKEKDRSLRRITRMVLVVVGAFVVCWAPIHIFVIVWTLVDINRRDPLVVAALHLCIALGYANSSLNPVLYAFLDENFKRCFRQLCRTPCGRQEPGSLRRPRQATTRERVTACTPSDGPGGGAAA

[21] = Toxicity in C57BL/6 mouse assessed as decrease in respiratory rate at 3 mg/kg, sc measured at 15 to 35 mins post dose relative to control; assay type: organism-based; set-up: scale not given: the % may be the effect or the level left; details: in vivo
[22] = biological target: 5-hydroxytryptamine receptor 7 (Homo sapiens) (UniProt P34969); experiment: Displacement of [3H]LSD from recombinant human 5HT7A receptor expressed in HEK cell membrane after 90 mins by microbeta scintillation counting method
5-hydroxytryptamine receptor 7 (Homo sapiens), sequence (P34969 whole entry): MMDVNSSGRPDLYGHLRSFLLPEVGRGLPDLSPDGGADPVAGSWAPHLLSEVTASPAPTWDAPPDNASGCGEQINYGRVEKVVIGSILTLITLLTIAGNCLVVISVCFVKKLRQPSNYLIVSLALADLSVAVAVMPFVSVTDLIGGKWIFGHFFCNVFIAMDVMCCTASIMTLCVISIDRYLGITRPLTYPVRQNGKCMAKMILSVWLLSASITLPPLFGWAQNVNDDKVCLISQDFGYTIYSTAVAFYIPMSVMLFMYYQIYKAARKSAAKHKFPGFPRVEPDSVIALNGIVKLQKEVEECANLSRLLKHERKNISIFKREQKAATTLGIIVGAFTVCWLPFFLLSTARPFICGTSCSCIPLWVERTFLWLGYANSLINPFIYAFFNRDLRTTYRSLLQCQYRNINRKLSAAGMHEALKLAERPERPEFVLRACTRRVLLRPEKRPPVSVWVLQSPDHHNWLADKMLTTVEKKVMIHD

[23] = Toxicity in C57BL/6 mouse assessed as conditioned place aversion at 1.3 to 3.2 mg/kg/day, ip measured for 30 mins post dose; assay type: organism-based; details: in vivo, 0.5 h
Mus musculus [24] = experiment: Antinociceptive activity in CD-1 mouse assessed as increase in reaction time at 1.5 mg/kg, sc measured 15 mins post dose in presence of opioid antagonist naloxone by radiant heat tail flick assay; assay type: functional, organism-based
[25] = Toxicity in C57BL/6 mouse assessed as conditioned place preference at 1.3 to 3.2 mg/kg/day, ip measured for 30 mins post dose; assay type: organism-based; details: in vivo, 0.5 h
Mus musculus [26] = experiment: Antinociceptive activity in sc dosed C57BL/6 mouse assessed as increase in reaction time by radiant heat tail flick assay; assay type: functional; details: C57BL/6, sc
[27] = biological target: Mu-type opioid receptor (Mus musculus) (UniProt P42866); experiment: Agonist activity at mouse mu opioid receptor-1 expressed in CHO cell membranes assessed as [35S]GTPgammaS binding incubated for 60 mins by scintillation spectroscopic analysis relative to DAMGO; assay type: functional
Mu-type opioid receptor (Mus musculus), sequence (P42866 whole entry, canonical isoform): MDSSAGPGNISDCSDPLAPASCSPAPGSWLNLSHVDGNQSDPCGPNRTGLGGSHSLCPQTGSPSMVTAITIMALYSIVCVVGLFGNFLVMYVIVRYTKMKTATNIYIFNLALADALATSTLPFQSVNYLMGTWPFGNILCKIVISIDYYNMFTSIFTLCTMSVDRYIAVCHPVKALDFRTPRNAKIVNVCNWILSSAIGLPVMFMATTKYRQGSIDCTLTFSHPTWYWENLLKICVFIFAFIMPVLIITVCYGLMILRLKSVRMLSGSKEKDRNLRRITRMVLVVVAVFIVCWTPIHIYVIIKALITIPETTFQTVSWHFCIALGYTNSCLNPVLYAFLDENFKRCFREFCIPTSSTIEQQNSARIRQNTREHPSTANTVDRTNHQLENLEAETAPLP

Mus musculus [28] = experiment: Antinociceptive activity in MOR-1 6TM/E11 splice variant knock out sc dosed C57BL/6 mouse assessed as increase in reaction time by radiant heat tail flick assay; assay type: functional; details: C57BL/6, sc

Structure (SMILES): CC[C@@H]1CN2CC[C@]3(Nc4cccc(OC)c4C3=O)[C@@H]2C[C@@H]1/C(=C\OC)C(=O)OC
- ED50 (Mus musculus [1]): > 30 mg/kg
- Activity (Mus musculus [2]): Active
- Activity (Mus musculus [3]): Active
- Activity (Mus musculus [4]): Active
- Activity (Mus musculus [5]): inactive
- ED50 (Mus musculus [6]): 0.99 mg/kg
- Activity [7]: Non-Toxic
- Activity [8]: Toxic
- Activity (Mus musculus [9]): Active
- ED50 (Mus musculus [10]): 0.76 mg/kg
- Ratio ED50 (Mus musculus [11]): 1.5
- ED50 (Mus musculus [12]): 1.6 mg/kg
- inhibition [13]: Active
- Activity (Mus musculus [14]): Active
- Activity (Mus musculus [15]): Active
- Activity (Mu-type opioid receptor): Not Active
- Time (Mus musculus [16]): 15 min
- Ratio ED50 (Mus musculus [17]): <2
- Activity [18]: 14
- ED50 (Mus musculus [19]): 4.5 mg/kg
- IC50 [20]: 61 nM
- Activity [21]: 15%
- inhibition [22]: Active
- Activity [23]: Non-Toxic
- Activity (Mus musculus [24]): inactive
- Activity [25]: Non-Toxic
- ED50 (Mus musculus [26]): 0.83 mg/kg
- Emax [27]: 84%
- ED50 (Mus musculus [28]): 1.4 mg/kg
